Experimental data taken from ChEMBL document CHEMBL4130638, “Discovery of the Polyamine Conjugate with Benzo[ cd]indol-2(1 H)-one as a Lysosome-Targeted Antimetastatic Agent” (J Med Chem, 2018).
Activity calls are given as the source filed them. The calls are words filed in the database; no cut-off is given here.

How the values were obtained:
[1] = Drug uptake in lysosomes isolated from human HCT116 cells at 10 uM after 8 hrs by Lyso-tracker staining based confocal microscopic method; type: ADME, subcellular, Lysosome; settings: hct-116, 8 h
[2] = tested on: HCT-116; test: Decrease in spermidine level in human HCT116 cells at 2.5 to 10 uM after 24 hrs by G1321A fluorescence detector coupled HPLC analysis; type: functional, cell-based
[3] = tested on: Mus musculus; test: Toxicity in Balb/c mouse implanted with mouse CT26 cells assessed as increase in spleen weight at 1 mg/kg, iv for 14 consecutive days starting from day 8 post tumor implantation; type: organism-based; settings: in vivo
[4] = tested on: HCT-116; test: Induction of autophagy in human HCT116 cells after 24 hrs by MDC staining based flow cytometry; type: functional, cell-based
[5] = tested on: HCT-116; test: Upregulation of cleaved caspase-8 protein expression in human HCT116 cells up to 10 uM after 24 hrs in presence of autophagy inhibitor 3-MA by Western blot method; type: functional, cell-based
[6] = tested on: CT26; test: Induction of apoptosis in mouse CT26 cells assessed as early apoptotic cells after 24 hrs by annexin V-FITC/propidium iodide staining based flow cytometry; type: functional, cell-based
[7] = tested on: CT26; test: Antimigratory activity against mouse CT26 cells after 24 hrs by crystal violet staining based transwell assay; type: functional, cell-based
[8] = tested on: CT26; test: Induction of apoptosis in mouse CT26 cells assessed as necrotic cells at 10 uM after 24 hrs by annexin V-FITC/propidium iodide staining based flow cytometry (reference value: 4.36%); type: functional
[9] = tested on: HCT-116; test: Downregulation of Akt protein expression in human HCT116 cells up to 10 uM after 24 hrs by Western blot method; type: functional, cell-based
[10] = tested on: HCT-116; test: Induction of autophagy in human HCT116 cells at 5 to 20 uM after 24 hrs in presence of autophagy inhibitor 3-MA by Lyso staining based flow cytometry; type: functional, cell-based
[11] = tested on: HCT-116; test: Induction of apoptosis in human HCT116 cells assessed as late apoptotic cells at 10 uM after 24 hrs by annexin V-FITC/propidium iodide staining based flow cytometry (reference value: 2.03%); type: functional
[12] = Drug uptake in human HCT116 cell lysosomes at 10 uM after 2 hrs by Lyso-tracker staining based confocal microscopic method; type: ADME, subcellular, Lysosome; settings: hct-116, 2 h
[13] = tested on: HCT-116; test: Induction of autophagy in human HCT116 cells at 5 to 20 uM after 24 hrs in presence of autophagy inhibitor 3-MA by MDC staining based flow cytometry; type: functional, cell-based
[14] = tested on: CT26; test: Induction of apoptosis in mouse CT26 cells assessed as early apoptotic cells at 10 uM after 24 hrs in presence of autophagy inhibitor 3-MA by annexin V-FITC/propidium iodide staining based flow cytometry (reference value: 3.91%); type: functional
[15] = tested on: HCT-116; test: Induction of apoptosis in human HCT116 cells assessed as live cells at 10 uM after 24 hrs in presence of pan-caspase inhibitor Z-VAD-FMK by annexin V-FITC/propidium iodide staining based flow cytometry (reference value: 89.97%); type: functional
[16] = tested on: SMMC-7721; test: Growth inhibition of human SMMC7721 cells after 48 hrs by MTT assay; type: functional, cell-based; settings: SMMC-7721, 48 h
[17] = target: Serine/threonine-protein kinase mTOR (Homo sapiens) (UniProt P42345); test: Inhibition of mTOR phosphorylation in human HCT116 cells after 24 hrs by Western blot method; type: cell-based
[18] = tested on: CT26; test: Induction of apoptosis in mouse CT26 cells assessed as late apoptotic cells after 24 hrs by annexin V-FITC/propidium iodide staining based flow cytometry; type: functional, cell-based
[19] = Drug uptake in human HCT116 cells assessed as PAT-mediated drug internalization at 2.5 to 7.5 uM after 24 hrs in presence of spermidine by high content screening analysis; type: ADME, cell-based
[20] = tested on: HCT-116; test: Decrease in spermine level in human HCT116 cells at 2.5 to 10 uM after 24 hrs by G1321A fluorescence detector coupled HPLC analysis; type: functional, cell-based
[21] = tested on: CT26; test: Induction of apoptosis in mouse CT26 cells assessed as necrotic cells at 10 uM after 24 hrs in presence of autophagy inhibitor 3-MA by annexin V-FITC/propidium iodide staining based flow cytometry (reference value: 4.36%); type: functional
[22] = tested on: Mus musculus; test: Toxicity in Balb/c mouse implanted with mouse CT26 cells assessed as increase in heart weight at 1 mg/kg, iv for 14 consecutive days starting from day 8 post tumor implantation; type: organism-based; settings: in vivo
[23] = tested on: HCT-116; test: Induction of apoptosis in human HCT116 cells assessed as live cells at 10 uM after 24 hrs by annexin V-FITC/propidium iodide staining based flow cytometry (reference value: 89.97%); type: functional
[24] = tested on: CT26; test: Induction of apoptosis in mouse CT26 cells assessed as live cells at 10 uM after 24 hrs in presence of autophagy inhibitor 3-MA by annexin V-FITC/propidium iodide staining based flow cytometry (reference value: 89.47%); type: functional
[25] = tested on: CT26; test: Growth inhibition of mouse CT26 cells after 24 hrs by MTT assay; type: functional, cell-based
[26] = tested on: HCT-116; test: Downregulation of mTOR protein expression in human HCT116 cells after 24 hrs by Western blot method; type: functional, cell-based
[27] = tested on: HCT-116; test: Downregulation of cathepsin-B protein expression in human HCT116 cells after 24 hrs by Western blot method; type: functional, cell-based
[28] = tested on: HCT-116; test: Downregulation of Bcl2 protein expression in human HCT116 cells up to 10 uM after 24 hrs by Western blot method; type: functional, cell-based
[29] = tested on: CT26; test: Induction of apoptosis in mouse CT26 cells assessed as late apoptotic cells at 10 uM after 24 hrs by annexin V-FITC/propidium iodide staining based flow cytometry (reference value: 2.26%); type: functional
[30] = tested on: CT26; test: Induction of autophagy in mouse CT26 cells at 5 to 20 uM after 24 hrs by Lyso staining based flow cytometry; type: functional, cell-based
[31] = tested on: HCT-116; test: Induction of autophagy in human HCT116 cells assessed as accumulation of LC3-2 after 24 hrs by Western blot method; type: functional, cell-based
[32] = tested on: HCT-116; test: Decrease in putrescine level in human HCT116 cells at 2.5 to 10 uM after 24 hrs by G1321A fluorescence detector coupled HPLC analysis; type: functional, cell-based
[33] = tested on: HCT-116; test: Induction of apoptosis in human HCT116 cells assessed as necrotic cells at 10 uM after 24 hrs in presence of autophagy inhibitor 3-MA by annexin V-FITC/propidium iodide staining based flow cytometry (reference value: 3.9%); type: functional
[34] = tested on: HCT-116; test: Growth inhibition of human HCT116 cells after 48 hrs by MTT assay; type: functional, cell-based; settings: HCT-116, 48 h
[35] = tested on: HCT-116; test: Downregulation of p62 protein expression in human HCT116 cells after 24 hrs by Western blot method; type: functional, cell-based
[36] = tested on: HCT-116; test: Upregulation of cleaved caspase-3 protein expression in human HCT116 cells up to 10 uM after 24 hrs by Western blot method; type: functional, cell-based
[37] = tested on: CT26; test: Antitumor activity against mouse CT26 cells implanted in Balb/c mouse assessed as solid tumor growth inhibition at 1 mg/kg, iv for 14 consecutive days measured on day 15 relative to control; type: functional; settings: 360 h, read-out: TGI
[38] = tested on: HCT-116; test: Induction of apoptosis in human HCT116 cells assessed as late apoptotic cells at 10 uM after 24 hrs in presence of autophagy inhibitor 3-MA by annexin V-FITC/propidium iodide staining based flow cytometry (reference value: 2.03%); type: functional
[39] = tested on: Mus musculus; test: Toxicity in Balb/c mouse implanted with mouse CT26 cells assessed as increase in liver weight at 1 mg/kg, iv for 14 consecutive days starting from day 8 post tumor implantation; type: organism-based; settings: in vivo

For `Cl.Cl.Cl.NCCCCNCCCCNCCCCN1C(=O)c2cccc3cccc1c23`, the Drug uptake [1] was “Active”, the Activity [2] was “Active” and the Activity [3] was “Toxic”. The Activity [4] was “Dose-dependent effect”, the Activity [5] was “inactive” and the Activity [6] was “Dose-dependent effect”. For the same compound, the Activity [7] was “Dose-dependent effect”, the Activity [8] was 3.56% and the Activity [9] was “Active”. For the same compound, the Activity [10] was “inactive”, the Activity [11] was 27.58% and the Drug uptake [12] was “Active”. For the same compound, the Activity [13] was “inactive”, the Activity [14] was 27.36% and the Activity [15] was 66.87%. For the same compound, the IC50 [16] was 13.5 µM, the inhibition [17] was “Dose-dependent effect” and the Activity [18] was “Dose-dependent effect”. The Drug uptake [19] was “Not Active”, the Activity [20] was “Active” and the Activity [21] was 4.42%. For the same compound, the Activity [22] was “Toxic”, the Activity [23] was 38.14% and the Activity [24] was 61.63%. The “growth inhibition (GI)” value [25] was “Dose-dependent effect”, the IC50 ([25]; CT26, 24 h) was 11.6 µM and the Activity [26] was “Dose-dependent effect”. For the same compound, the Activity [27] was “Dose-dependent effect”, the Activity [28] was “Active” and the Activity [29] was 23.22%. For the same compound, the Activity [30] was “Active”, the Activity [31] was “Dose-dependent effect” and the Activity [32] was “inactive”. For the same compound, the Activity [33] was 7.21%, the IC50 [34] was 5.72 µM and the Activity [35] was “Dose-dependent effect”. For the same compound, the Activity [36] was “Active”, the inhibition in vivo at 1 mg/kg [37] was 46.9% and the Activity [38] was 18.92%. For the same compound, the Activity [39] was “Toxic”.
